Source: US5385932A, “HMG-COA reductase inhibitor metabolites” (Merck & Co., Inc., priority 1992, dated 1995)

Experiments:
[1] = biological target: T1, HMG--CoA reductase (Rattus norvegicus, UniProt P51639); test: intrinsic HMG-CoA reductase inhibition, in vitro protocol after alkaline hydrolysis of the lactone ring; assay type: biochemical; settings: relative inhibitory potency from IC50 values; lactone ring opened by alkaline hydrolysis; lovastatin (hydroxy acid form) assigned 100
T1 construct: from tissue
T1 sequence (P51639 1-887): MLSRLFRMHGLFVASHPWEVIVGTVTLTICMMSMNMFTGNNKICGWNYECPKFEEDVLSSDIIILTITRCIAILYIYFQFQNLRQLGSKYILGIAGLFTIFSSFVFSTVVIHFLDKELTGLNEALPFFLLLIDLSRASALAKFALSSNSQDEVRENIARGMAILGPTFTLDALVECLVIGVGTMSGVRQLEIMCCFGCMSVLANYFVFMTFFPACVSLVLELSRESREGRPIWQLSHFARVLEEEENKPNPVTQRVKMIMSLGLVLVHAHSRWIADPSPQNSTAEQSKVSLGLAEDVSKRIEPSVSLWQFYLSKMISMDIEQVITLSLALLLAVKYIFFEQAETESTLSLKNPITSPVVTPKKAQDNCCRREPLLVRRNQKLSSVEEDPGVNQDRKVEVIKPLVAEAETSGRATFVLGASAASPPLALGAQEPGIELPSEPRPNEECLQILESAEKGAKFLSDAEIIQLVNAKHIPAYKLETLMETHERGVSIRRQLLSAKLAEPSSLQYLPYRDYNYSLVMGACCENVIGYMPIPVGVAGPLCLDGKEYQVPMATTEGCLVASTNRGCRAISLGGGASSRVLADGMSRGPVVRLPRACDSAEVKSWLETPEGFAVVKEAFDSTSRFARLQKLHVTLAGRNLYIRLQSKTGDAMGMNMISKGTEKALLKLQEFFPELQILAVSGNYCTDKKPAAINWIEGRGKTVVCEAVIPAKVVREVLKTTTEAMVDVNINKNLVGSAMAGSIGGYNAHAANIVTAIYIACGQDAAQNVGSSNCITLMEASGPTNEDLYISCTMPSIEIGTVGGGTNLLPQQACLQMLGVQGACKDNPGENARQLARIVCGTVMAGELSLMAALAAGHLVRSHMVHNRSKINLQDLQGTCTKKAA
Method: After alkaline hydrolysis of the lactone ring the intrinsic HMG--CoA reductase inhibition activity was measured in an vitro protocol based on a method published in Proc. Natl. Acad. Sci. U.S.A. 77, 3957-3961 (1980).
The IC50 value of the test compound was compared with that of its parent determined simultaneously. For estimation of relative inhibitory potencies, lovastatin (in the form of its hydroxy acid) was assigned a value of 100.

[2] = stability of the free dihydroxy acid on standing; assay type: physicochemical; settings: on standing at room temperature; acid form can be maintained by increasing the pH above 7.0
Method: The sodium salt of the compound II from Example 4 is dissolved in 2 ml of ethanol-water (1:1; v:v) and added to 10 ml of 1N hydrochloric acid from which the dihydroxy acid is extracted with ethyl acetate. The organic extract is washed once with water, dried (Na2 SO4), and evaporated in vacuo with a bath temperature not exceeding 30° C. […] The dihydroxy acid form can be maintained by increasing the pH above 7.0.

[3] = incubation of 14C-labelled compound with rat liver microsomes, HPLC analysis of the label; assay type: in vitro ADME; settings: rat liver microsomes with NADPH and MgCl2, pH 7.4, 37°
Method: Rat liver tissue (55.6 g) was homogenized in 0.05M Tris -1.15% KCl buffer at pH 7.5 (100 ml). The homogenates were centrifuged at 10,000 RPM for 20 '. The supernatants were filtered through glass wool and then centrifuged as 100,000 g for 90'. After the supernatant was discarded the pellet was suspended in 10 mM EDTA -1.15% KCl (100 ml) and recentrifuged at 100,000 g for 90 minutes. The supernatant was discarded and the pellet was resuspended in 0.25M sucrose (15 ml). Microsomes were stored at -80° under N2. Protein concentration (as determined by Biuret reaction) was 40 mg/ml of final suspension.
[^14 C] 6(R)-[2-[8(S)-(2,2-dimethylbutyryloxy)-2(S)-methyl-5(R)-hydroxy-6(S)-methyl-1,2,3,4, 4a(R),5,6,7,8,Sa(R)-decahydronaphthyl-1(S)]ethyl]-4(R)-hydroxy-3,4,5,6,-tetrahydro-2H-pyran-2-one (compound A)(40 μg) in 20 λ of DMSO was placed in a tube with rat liver microsomes (1 mg in 100 μl of broth) Mg Cl2 (30 μl of a 0.1M solution), NADPH (50 μl of a 0.01M solution) and phosphate buffer (100 λ of a.1M solution, pH 7.4).
Twenty five such tubes were incubated at 37° in a water bath, for 30 minutes. Acetone (1 ml) was added to each tube, followed by ethyl acetate (5 ml). The ethyl acetate was evaporated and the residue was reconstituted in methanol and fractionated by HPLC. […]

CCC(C)(C)C(=O)O[C@H]1C[C@](C)(O)C[C@@H]2CC[C@H](C)[C@H](CC[C@@H]3C[C@@H](O)CC(=O)O3)[C@H]21 [6(R)-[2-[8(S)-(2,2-dimethylbutyryloxy)-2(S),6(R)-dimethyl-6(R)-hydroxy-1,2,3,4,4a (R),5,6,7,8,8a (R)-decahydronaphthyl-1(S)]ethyl]-4(R)-hydroxy-3,4,5,6-tetrahydro-2H-pyran-2-one]
Potency (Relative to Lovastatin = 100) [1]: 2

CCC(C)(C)C(=O)O[C@H]1C[C@](C)(O)[C@@H](O)[C@@H]2CC[C@H](C)[C@H](CC[C@@H]3C[C@@H](O)CC(=O)O3)[C@H]21 [6(R)-[2-[8(S)-(2,2-dimethylbutyryloxy)-2(S)-methyl-5(S),6(S)-dihydroxy-6(S)-methyl-1,2,3,4, 4a (R),5,6,7,8,8a (R)-decahydronaphthyl-1(S)]ethyl]-4(R)-hydroxy-3,4,5,6-tetrahydro-2H-pyran-2-one]
Potency (Relative to Lovastatin = 100) [1]: 40

CCC(C)(C)C(=O)O[C@H]1C[C@](C)(O)[C@@H](O)[C@@H]2CC[C@H](C)[C@H](CC[C@@H](O)C[C@@H](O)CC(=O)O)[C@H]21 [Example 10]
stability of dihydroxy acid form (reversion to lactone) [2]: slowly reverts to the corresponding parent lactone

CCC(C)(C)C(=O)O[C@H]1C[C@@H](C)[C@@H](O)[C@@H]2CC[C@H](C)[C@H](CC[C@@H]3C[C@@H](O)CC(=O)O3)[C@H]21 [compound A, 6(R)-[2-[8(S)-(2,2-dimethylbutyryloxy)-2(S)-methyl-5(R)-hydroxy-6(S)-methyl-1,2,3,4, 4a(R),5,6,7,8,Sa(R)-decahydronaphthyl-1(S)]ethyl]-4(R)-hydroxy-3,4,5,6,-tetrahydro-2H-pyran-2-one]
remaining at 0.5 h ([3]; 30 minutes, ethyl acetate extract, read-out: label representing unchanged starting material): 52%

CCC(C)(C)C(=O)O[C@H]1C[C@@H](C)C[C@@H]2CC[C@H](C)[C@H](CC[C@@H]3C[C@@H](O)CC(=O)O3)[C@H]21 [compound B, 6(R)-[2-[8(S)-(2,2-dimethylbutyryloxy)-2(S),6(R)-dimethyl-1,2,3,4,4a(R),5,6,7,8, 8a(R)-decahydronaphthyl-1(S)]ethyl]-4(R)-hydroxy-3,4,5,6-tetrahydro-2H-pyran-2-one]
remaining at 1 h ([3]; 60 minutes, methyl-t.butyl ether extract, read-out: label in the extract that was unchanged starting material): 66%
